Where two headings read alike, the source gives them in different places.

What all share (format): in vivo
Assay [1] deals with Eiysiphe graminis f. sp. tritici. Put plainly: Test A: wheat powdery mildew, preventive spray on wheat seedlings. The following applies: for Test A disease control rating: wheat powdery mildew; for Test A disease control rating (100 = 100% disease control, 0 = no disease control): wheat seedlings sprayed to run-off, inoculated the following day, rating relative to controls, unmarked compounds (standard test rate). Summed up: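 Preventive test: seedlings inoculated with powdery mildew spores one day after run-off spraying of a suspension. Ratings after 7 days in a 20° C growth chamber express percent disease control versus controls.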

The subject of the next assay is Puccinia recondita. Put plainly: Test B: wheat leaf rust, preventive spray on wheat seedlings. The following applies: for Test B disease control rating: wheat leaf rust; for Test B disease control rating (100 = 100% disease control, 0 = no disease control): wheat seedlings sprayed to run-off, inoculated the following day, rating relative to controls, unmarked compounds (standard test rate). Summed up:
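Preventive test: P. recondita spores were applied one day after a run-off spray of compound suspension on wheat seedlings. Plants had 24 h at 20 °C in saturated air plus 6 days in a 20 °C growth chamber. Scoring is % disease control (100 = full) relative to controls.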

The subject of another assay is Pyricularia oryzae. The following applies: for Test C disease control rating: rice blast; for Test C disease control rating (100 = 100% disease control, 0 = no disease control): rice seedlings sprayed to run-off, inoculated the following day, rating relative to controls, unmarked compounds (standard test rate).
A further assay concerns Phytophthora infestans. The following applies: for Test D disease control rating: tomato late blight; for Test D disease control rating (100 = 100% disease control, 0 = no disease control): tomato seedlings sprayed to run-off, inoculated the following day, rating relative to controls, unmarked compounds (standard test rate).
Another assay has as its system Botrytis cinerea. Put plainly: Test E: gray mold, preventive spray on cucumber seedlings. The following applies: for Test E disease control rating: gray mold on cucumber; for Test E disease control rating (100 = 100% disease control, 0 = no disease control): cucumber seedlings sprayed to run-off, inoculated the following day, rating relative to controls, unmarked compounds (standard test rate). Summed up: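 Preventive spray on cucumber seedlings used a suspension (3% acetone, 250 ppm Trem 014), applied to run-off one day before inoculation with Botrytis cinerea spores. Plants were held 48 h at 20° C in saturated air, then 5 days at 20° C. Percent disease control was scored relative to untreated plants.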

The mark [2] stands for this setting: 100 = 100% disease control, 0 = no control relative to controls, unmarked entries (standard test concentration).
[3] abbreviates: 100 = 100% disease control, 0 = no control, unmarked entries (standard test concentration).

With `CC(COc1ccc(F)cc1)NC(=O)C(C#N)C(C)(C)C` (single isomer, unassigned) [4b], the “Test A disease control rating” value in assay [1] (setting [2]) is given as 86%. The “Test B disease control rating” value in the assay with Puccinia recondita (setting [3]) amounted to 0%. For the same compound, the “Test C disease control rating” value with Pyricularia oryzae (setting [3]) is given as 99%. Also, in the assay with Phytophthora infestans (setting [3]), the “Test D disease control rating” value turned out to be 89%. Also, in the assay on Botrytis cinerea (setting [3]), the “Test E disease control rating” value came out at 82%.

Consider `CCC1(C(=O)NC(C)COc2ccccc2Br)C(C)C1(Cl)Cl` (mixture of isomers) [84b], for which the “Test A disease control rating” value in assay [1] (tested at 40 ppm) came to 57%. In the assay with Puccinia recondita (tested at 40 ppm), the “Test B disease control rating” value is 28%. The “Test C disease control rating” value in the assay with Pyricularia oryzae (tested at 40 ppm) amounted to 73%. In addition, the “Test D disease control rating” value in the assay with Phytophthora infestans (tested at 40 ppm) was determined as 75%. Moreover, the “Test E disease control rating” value with Botrytis cinerea (tested at 40 ppm) came out at 0%.

As to `CC(COc1ccccc1)NC(=O)C(C#N)C(C)C(C)(C)C` (mixture of isomers) [compound 56], the “Test A disease control rating” value in assay [1] (tested at 40 ppm) came out at 74%. Besides, the “Test B disease control rating” value in the assay on Puccinia recondita (tested at 40 ppm) was 0%. Besides, the “Test C disease control rating” value with Pyricularia oryzae (tested at 40 ppm) is on record as 85%. In addition, the “Test D disease control rating” value in the assay with Phytophthora infestans (tested at 40 ppm) is reported as 0%. Besides, the “Test E disease control rating” value with Botrytis cinerea (tested at 40 ppm) is 0%.

Regarding `CCC1(C(=O)NC(C)COc2cc(F)ccc2C#N)C(C)C1(Cl)Cl` (stereo not shown) [compound 245], the “Test A disease control rating (100 = 100% disease control, 0 = no disease control)” value in assay [1] turned out to be 72%. Also, in the assay with Puccinia recondita, the “Test B disease control rating (100 = 100% disease control, 0 = no disease control)” value came out at 0%. For the same compound, the “Test C disease control rating (100 = 100% disease control, 0 = no disease control)” value with Pyricularia oryzae is listed as 100%. Moreover, in the assay on Phytophthora infestans, the “Test D disease control rating (100 = 100% disease control, 0 = no disease control)” value amounted to 0%. Moreover, in the assay on Botrytis cinerea, the “Test E disease control rating (100 = 100% disease control, 0 = no disease control)” value came to 0%.

Consider `CC(C(C#N)C(=O)NCC=Cc1ccccc1F)C(C)(C)C` (mixture of isomers) [compound 75], for which the “Test A disease control rating” value in assay [1] (tested at 40 ppm) was found to be 0%. Moreover, in the assay with Puccinia recondita (tested at 40 ppm), the “Test B disease control rating” value amounted to 0%. Also, the “Test C disease control rating” value with Pyricularia oryzae (tested at 40 ppm) was found to be 52%. The “Test D disease control rating” value in the assay with Phytophthora infestans (tested at 40 ppm) turned out to be 19%. Also, the “Test E disease control rating” value with Botrytis cinerea (tested at 40 ppm) was found to be 0%.

For `CCC1(C(=O)NC(C)COn2cc(Cl)cc2C#N)C(C)C1(Cl)Cl` (mixture of isomers) [compound 138], the “Test A disease control rating” value in assay [1] (setting [2]) is listed as 0%. Also, in the assay with Puccinia recondita (setting [3]), the “Test B disease control rating” value came out at 0%. The “Test C disease control rating” value with Pyricularia oryzae (setting [3]) is reported as 53%. The “Test D disease control rating” value in the assay with Phytophthora infestans (setting [3]) is reported as 13%. The “Test E disease control rating” value in the assay with Botrytis cinerea (setting [3]) was 0%.

For the compound `CC(COc1cc(Cl)ccc1Cl)NC(=O)C(C#N)C(C)C(C)(C)C` (mixture of isomers) [compound 62], the “Test A disease control rating” value in assay [1] (tested at 40 ppm) was determined as 74%. The “Test B disease control rating” value with Puccinia recondita (tested at 40 ppm) is recorded as 0%. In the assay on Pyricularia oryzae (tested at 40 ppm), the “Test C disease control rating” value stood at 52%. Besides, the “Test D disease control rating” value in the assay on Phytophthora infestans (tested at 40 ppm) is reported as 0%. In the assay on Botrytis cinerea (tested at 40 ppm), the “Test E disease control rating” value is listed as 0%.

Take `CCC1(C(=O)NC(C)COc2ccccc2C(F)(F)F)C(C)C1(Cl)Cl` (mixture of isomers) [94a]: the “Test A disease control rating” value in assay [1] (setting [2]) turned out to be 0%. For the same compound, the “Test B disease control rating” value in the assay with Puccinia recondita (setting [3]) came to 0%. Also, the “Test C disease control rating” value in the assay on Pyricularia oryzae (setting [3]) amounted to 0%. Besides, the “Test D disease control rating” value in the assay on Phytophthora infestans (setting [3]) is given as 0%. In addition, in the assay with Botrytis cinerea (setting [3]), the “Test E disease control rating” value was 0%.

On to `CC(COc1ccc(Cl)cc1)NC(=O)C(C#N)C(C)(C)C` (single isomer, unassigned) [7a], for which the “Test A disease control rating” value in assay [1] (setting [2]) was found to be 77%. The “Test B disease control rating” value with Puccinia recondita (setting [3]) is on record as 85%. In the assay with Pyricularia oryzae (setting [3]), the “Test C disease control rating” value was found to be 91%. For the same compound, the “Test D disease control rating” value in the assay on Phytophthora infestans (setting [3]) was 89%. For the same compound, the “Test E disease control rating” value with Botrytis cinerea (setting [3]) stood at 0%.

On to `CC(COc1ccccc1C#N)NC(=O)C(C#N)C(C)(C)C` (mixture of isomers) [13a], for which the “Test A disease control rating” value in assay [1] (setting [2]) is 34%. Further, the “Test B disease control rating” value with Puccinia recondita (setting [3]) is 0%. For the same compound, in the assay on Pyricularia oryzae (setting [3]), the “Test C disease control rating” value is given as 51%. Besides, the “Test D disease control rating” value in the assay with Phytophthora infestans (setting [3]) stood at 0%. In the assay with Botrytis cinerea (setting [3]), the “Test E disease control rating” value was 0%.

Regarding `CCC1(C(=O)NC(C)C=Cc2ccc(F)cc2)C(C)C1(Cl)Cl` (mixture of isomers) [compound 261], in assay [1], the “Test A disease control rating (100 = 100% disease control, 0 = no disease control)” value is listed as 0%. Also, the “Test B disease control rating (100 = 100% disease control, 0 = no disease control)” value in the assay on Puccinia recondita amounted to 0%. Further, the “Test C disease control rating (100 = 100% disease control, 0 = no disease control)” value in the assay on Pyricularia oryzae is reported as 100%. For the same compound, in the assay with Phytophthora infestans, the “Test D disease control rating (100 = 100% disease control, 0 = no disease control)” value came out at 54%. The “Test E disease control rating (100 = 100% disease control, 0 = no disease control)” value with Botrytis cinerea amounted to 0%.

The values are drawn from US6642392B1 (priority 1997, dated 2003).
